Active and inactive are the calls of the source. No cut-off for these calls is given here.
Test system: Mycobacterium tuberculosis
Assay: Antibacterial activity against Mycobacterium tuberculosis H37Rv assessed as frequency of spontaneous resistant mutant at 5 and 10 times MIC90 measured after 5 weeks
Assay type: functional, organism-based

In the case of `CC(=O)NC[C@H]1CN(c2ccc3c(c2)Oc2ccccc2O3)C(=O)O1`, the Activity is reported as “inactive”.

Source: ChEMBL document CHEMBL3822373, “An evolved oxazolidinone with selective potency against Mycobacterium tuberculosis and gram positive bacteria” (2016)
